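Briefly, cells in 96-well plates were exposed to five compound concentrations for 48 h, and endpoints were estimated by linear interpolation. GI50 = concentration required for 50% inhibition of growth. Definition used: TGI = concentration required for complete inhibition of growth.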
Assays:
Assay in all cases: inhibition of tumour cell growth, NCI panel, 48 h
UACC-257 melanoma = system: UACC-257 melanoma
UO-31 renal = system: UO-31 renal
M14 melanoma = system: M14 melanoma
A498 renal = system: A498 renal
NCI/ADR-RES ovarian = system: NCI/ADR-RES ovarian
SK-MEL-28 melanoma = system: SK-MEL-28 melanoma
MDA-MB-231 breast = system: MDA-MB-231 breast
NCI-H522 lung = system: NCI-H522 lung
IGROV1 ovarian = system: IGROV1 ovarian
SN12C renal = system: SN12C renal
UACC-62 melanoma = system: UACC-62 melanoma
NCI-H460 lung = system: NCI-H460 lung
COLO 205 colon = system: COLO 205 colon
786-0 renal = system: 786-0 renal
HS 578T breast = system: HS 578T breast
TK-10 renal = system: TK-10 renal
HL-60(TB) leukemia = system: HL-60(TB) leukemia
EKVX NSCLC = system: EKVX NSCLC
ACHN renal = system: ACHN renal
SF-295 CNS = system: SF-295 CNS
HT29 colon = system: HT29 colon
NCI-H226 lung = system: NCI-H226 lung
MCF7 breast = system: MCF7 breast
OVCAR-8 ovarian = system: OVCAR-8 ovarian
NCI-H23 lung = system: NCI-H23 lung
HCT-15 colon = system: HCT-15 colon
HCC-2998 colon = system: HCC-2998 colon
SK-OV-3 ovarian = system: SK-OV-3 ovarian
SW-620 colon = system: SW-620 colon

CC(CNC(Cc1ccccc1)c1ccccc1)NC(Cc1ccccc1)c1ccccc1 (stereo not drawn)
GI50 (UACC-257 melanoma): 2.67 µM
TGI (UACC-257 melanoma): 6.9 µM
GI50 (UO-31 renal): 1.87 µM
TGI (UO-31 renal): 6.06 µM
GI50 (M14 melanoma): 1.79 µM
TGI (M14 melanoma): 3.6 µM
GI50 (A498 renal): 2.26 µM
TGI (A498 renal): 5.02 µM
GI50 (NCI/ADR-RES ovarian): 1.83 µM
TGI (NCI/ADR-RES ovarian): 4.17 µM
GI50 (SK-MEL-28 melanoma): 2.84 µM
TGI (SK-MEL-28 melanoma): 7.81 µM
GI50 (MDA-MB-231 breast): 1.81 µM
TGI (MDA-MB-231 breast): 3.7 µM
GI50 (NCI-H522 lung): 1.63 µM
TGI (NCI-H522 lung): 3.5 µM
GI50 (IGROV1 ovarian): 2.76 µM
TGI (IGROV1 ovarian): 10.5 µM
GI50 (SN12C renal): 2.22 µM
TGI (SN12C renal): 6.38 µM
GI50 (UACC-62 melanoma): 1.8 µM
TGI (UACC-62 melanoma): 3.8 µM
GI50 (NCI-H460 lung): 2.03 µM
TGI (NCI-H460 lung): 4.06 µM
GI50 (COLO 205 colon): 1.66 µM
TGI (COLO 205 colon): 3.46 µM
GI50 (786-0 renal): 1.67 µM
TGI (786-0 renal): 3.36 µM
GI50 (HS 578T breast): 2.64 µM
TGI (HS 578T breast): 8.27 µM
GI50 (TK-10 renal): 3.22 µM
TGI (TK-10 renal): 12.5 µM
GI50 (HL-60(TB) leukemia): 2 µM
TGI (HL-60(TB) leukemia): 4.51 µM
GI50 (EKVX NSCLC): 2.47 µM
TGI (EKVX NSCLC): 9.16 µM
GI50 (ACHN renal): 2.93 µM
TGI (ACHN renal): 8.85 µM
GI50 (SF-295 CNS): 1.52 µM
TGI (SF-295 CNS): 3.27 µM
GI50 (HT29 colon): 1.97 µM
TGI (HT29 colon): 4.04 µM
GI50 (NCI-H226 lung): 1.94 µM
TGI (NCI-H226 lung): 4.09 µM
GI50 (MCF7 breast): 2.08 µM
TGI (MCF7 breast): 5.16 µM
GI50 (OVCAR-8 ovarian): 2.6 µM
TGI (OVCAR-8 ovarian): 6.17 µM
GI50 (NCI-H23 lung): 1.94 µM
TGI (NCI-H23 lung): 4.46 µM
GI50 (HCT-15 colon): 2 µM
TGI (HCT-15 colon): 4.87 µM
GI50 (HCC-2998 colon): 2.03 µM
TGI (HCC-2998 colon): 4.45 µM
GI50 (SK-OV-3 ovarian): 5.34 µM
TGI (SK-OV-3 ovarian): 16.8 µM
GI50 (SW-620 colon): 2.75 µM
TGI (SW-620 colon): 8.53 µM

From PubChem BioAssay (NCI)
